Source: US20170216235A1, “ADMINISTRATION OF ADAPALENE AND BENZOYL PEROXIDE FOR THE LONG-TERM TREATMENT OF ACNE VULGARIS” (GALDERMA RESEARCH & DEVELOPMENT, priority 2007, published 2017)
Read-outs that look alike come from different tables or passages of the source. Blank lines part the entries; values can stand above or below the compound they belong to.

What was measured:
[1] = Retinoid degradation in the presence of BPO; type: physicochemical
Description: Another technical problem to be solved for the formulation of a composition comprising both adapalene and BPO is the chemical and physical compatibility of these compounds within the same formulation provided that common retinoids are natural oxidization sensitive, visible light and ultra violet sensitive and BPO being a strong oxidizing agent.
Indeed, BPO triggers rapidly degradation of natural oxidization sensitive retinoids: 50% of tretinoine is degraded within 2 hours and 95% is degraded within 24 hours.

[2] = 40° C., cited from earlier work

retinoid degraded in the presence of BPO ([1]; within 2 hours): 50%
retinoid degraded in the presence of BPO ([1]; within 24 hours): 95%
SMILES: CC1=C(/C=C/C(C)=C/C=C/C(C)=C/C(=O)O)C(C)(C)CCC1 [tretinoine]

SMILES: O=C(OOC(=O)c1ccccc1)c1ccccc1 [BPO, benzoyl peroxide]
BPO degradation time ([2]; in PEG 400 (0.5 mg/g)): 14 days
BPO degradation time ([2]; in ethanol): 29 days
BPO degradation time ([2]; in propylene glycol): 53 days

adapalene degradation in the composition with BPO ([1]; within 24 hours): no adapalene degradation
SMILES: COc1ccc(-c2ccc3cc(C(=O)O)ccc3c2)cc1C12CC3CC(CC(C3)C1)C2 [adapalene, 6-[3-(1-adamantyl)-4-methoxyphenyl]-2-naphthoic acid]
